Measurements taken from patent publication US9593136B2 (priority 2011, dated 2017).
Converted amounts (≈) assume the structure as drawn. Like-named read-outs stand apart in the source and are kept apart here.

Assays:
[1] = biological target: M. tuberculosis Dxr (Mycobacterium tuberculosis, UniProt P9WNS1); assay: biochemical
[2] = tested on: Mtb H37Rv (ATCC 27294); assay: microbe, parasite or virus in culture; assay type: cell-based, Mycobacterium tuberculosis; conditions: for MIC: Mycobacterium tuberculosis
[3] = tested on: E. coli k12; assay: microbe, parasite or virus in culture; assay type: cell-based
[4] = tested on: S. aureus (MSSA); assay: microbe, parasite or virus in culture; assay type: cell-based
[5] = tested on: E. coli tolc; assay: microbe, parasite or virus in culture; assay type: cell-based
[6] = tested on: B. anthracis; assay: microbe, parasite or virus in culture; assay type: cell-based, Bacillus anthracis
[7] = tested on: E. faecalis; assay: microbe, parasite or virus in culture; assay type: cell-based
[8] = tested on: Acinetobacter; assay: microbe, parasite or virus in culture; assay type: cell-based
[9] = tested on: MRSA NRS 70; assay: microbe, parasite or virus in culture; assay type: cell-based, S. aureus
[10] = read-out: Mtb MIC (ug/mL) (7H9)
[11] = read-out: Mtb MIC (ug/mL) (GAST)

Chain of M. tuberculosis Dxr (P9WNS1 whole entry, looked up): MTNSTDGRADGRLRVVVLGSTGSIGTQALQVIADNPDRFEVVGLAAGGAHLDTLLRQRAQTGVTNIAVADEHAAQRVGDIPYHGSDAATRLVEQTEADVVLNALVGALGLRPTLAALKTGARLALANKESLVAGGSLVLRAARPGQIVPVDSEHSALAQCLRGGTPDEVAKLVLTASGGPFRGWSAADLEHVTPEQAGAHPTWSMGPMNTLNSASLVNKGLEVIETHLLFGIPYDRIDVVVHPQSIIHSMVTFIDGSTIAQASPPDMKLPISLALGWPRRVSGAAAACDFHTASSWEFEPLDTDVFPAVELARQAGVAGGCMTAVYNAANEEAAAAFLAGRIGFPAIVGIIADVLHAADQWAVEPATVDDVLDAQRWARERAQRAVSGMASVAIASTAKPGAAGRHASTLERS

## CC(=O)N(CCCP(=O)(O)O)OCCc1ccccc1 [Compound 3, Sodium hydrogen 3-(N-(phenethyloxy)acetamido)propylphosphonate]
[1]; IC50 (μM)
  IC50: 96.4 µM

## CC(=O)N(CCCP(=O)(O)O)OCCCc1ccccc1 [Compound 4, Sodium hydrogen 3-(N-(3-phenylpropoxy)acetamido)propylphosphonate]
[1]; read-out: % Remaining Enzyme Activity at 100 μg/mL
  remaining activity at 100 µg/mL: 100%

## CC(=O)N(CCCP(=O)(O)O)OCc1ccc(C(C)C)cc1 [Compound 5, Sodium hydrogen 3-(N-(4-isopropylbenzyloxy)acetamido)propylphosphonate]
[1]; IC50 (μM)
  IC50: 50.6 µM

## CCOP(=O)(CCN(O)C=O)OCC [Compound 5b]
[2]
  MIC 7H9: >500 µg/mL
  MIC GAST/Fe: >500 µg/mL

## CCOP(=O)(CCCN(O)C=O)OCC [Compound 5c]
[2]
  MIC 7H9: 250 µg/mL (≈ 1050 µM)

## CCOP(=O)(CCN(O)C(C)=O)OCC [Compound 5f]
[2]
  MIC 7H9: >500 µg/mL
  MIC GAST/Fe: >500 µg/mL

## CC(=O)N(CCCP(=O)(O)O)OCC1CCCCC1 [Compound 6, Sodium hydrogen 3-(N-(cyclohexylmethoxy)acetamido)propylphosphonate]
[1]; IC50 (μM)
  IC50: 198 µM

## O=C(Cc1ccccc1)N(O)CCCP(=O)(O)O [Compound 7, Sodium hydrogen 3-(N-hydroxy-2-phenylacetamido)propylphosphonate]
[1]; IC50 (μM)
  IC50: 7.5 µM

## O=C(CCCc1ccccc1)N(O)CCCP(=O)(O)O [Compound 8, Sodium hydrogen 3-(N-hydroxy-4-phenylbutanamido)propylphosphonate]
[1]; IC50 (μM)
  IC50: 3.1 µM

## O=C(C1CCCCC1)N(O)CCCP(=O)(O)O [Compound 9, Sodium hydrogen 3-(N-hydroxycyclohexanecarboxamido)propylphosphonate]
[1]; IC50 (μM)
  IC50: 57.8 µM

## CCOP(=O)(CCCN(O)C(=O)c1ccccc1)OCC [Compound 9a]
[2]; read-out: MIC 7H9 (μg/mL)
  MIC: > 500 µg/mL
[2]; read-out: MIC GAST/Fe (μg/mL)
  MIC: 31.2 µg/mL (≈ 99.1 µM)

## CCOP(=O)(CCCN(O)C=O)OCC [Compound 10, Diethyl fosmidomycin]
[3]
  MIC E. coli k12: >200 µg/mL
[4]
  MIC S. aureus (MSSA): >200 µg/mL
[5]
  MIC E. coli tolc: >200 µg/mL
[6]
  MIC B. anthracis: >200 µg/mL
[7]
  MIC E. faecalis: >200 µg/mL
[2]
  MIC M. tuberculosis (H37Rv): 400 µg/mL (≈ 1670 µM)
[8]
  MIC Acinetobacter: >200 µg/mL
[9]
  MIC S. aureus (MRSA): >200 µg/mL

## CCCCCCOP(=O)(CCCN(O)C(C)=O)OCCCCCC [Compound 21]
[2]
  MIC M. tuberculosis (H37Rv): 100 µg/mL (≈ 274 µM)

## CCOC(=O)OC(C)OP(=O)(CCCN(O)C(C)=O)OC(C)OC(=O)OCC (stereo not drawn) [Compound 22]
[3]
  MIC E. coli k12: >200 µg/mL
[4]
  MIC S. aureus (MSSA): >200 µg/mL
[5]
  MIC E. coli tolc: 200 µg/mL (≈ 466 µM)
[6]
  MIC B. anthracis: >200 µg/mL
[7]
  MIC E. faecalis: >200 µg/mL
[2]
  MIC M. tuberculosis (H37Rv): 400 µg/mL (≈ 932 µM)
[8]
  MIC Acinetobacter: >200 µg/mL
[9]
  MIC S. aureus (MRSA): >200 µg/mL

## CC(=O)N(O)CCCP(=O)(OCC(=O)OC(C)(C)C)OCC(=O)OC(C)(C)C [Compound 23]
[3]
  MIC E. coli k12: >200 µg/mL
[4]
  MIC S. aureus (MSSA): 100 µg/mL (≈ 235 µM)
[5]
  MIC E. coli tolc: >200 µg/mL
[6]
  MIC B. anthracis: >200 µg/mL
[7]
  MIC E. faecalis: >200 µg/mL
[2]
  MIC M. tuberculosis (H37Rv): 400 µg/mL (≈ 940 µM)
[8]
  MIC Acinetobacter: >200 µg/mL
[9]
  MIC S. aureus (MRSA): 25 µg/mL (≈ 58.8 µM)

## CC(=O)N(O)CCCP(=O)(OCOC(=O)C(C)(C)C)OCOC(=O)C(C)(C)C [Compound 24]
[3]
  MIC E. coli k12: >200 µg/mL
[4]
  MIC S. aureus (MSSA): 100 µg/mL (≈ 235 µM)
[5]
  MIC E. coli tolc: 100 µg/mL (≈ 235 µM)
[6]
  MIC B. anthracis: 200 µg/mL (≈ 470 µM)
[7]
  MIC E. faecalis: >200 µg/mL
[2]
  MIC M. tuberculosis (H37Rv): 50 to 100 µg/mL
  antitubercular activity (in words): better antitubercular activity
[8]
  MIC Acinetobacter: >200 µg/mL
[9]
  MIC S. aureus (MRSA): 50 µg/mL (≈ 118 µM)

## CC(=O)N(O)CCCP(=O)(OC(C)OC(=O)OC(C)(C)C)OC(C)OC(=O)OC(C)(C)C (stereo not drawn) [Compound 25]
[3]
  MIC E. coli k12: >200 µg/mL
[4]
  MIC S. aureus (MSSA): 100 µg/mL (≈ 206 µM)
[5]
  MIC E. coli tolc: >200 µg/mL
[6]
  MIC B. anthracis: 200 µg/mL (≈ 412 µM)
[7]
  MIC E. faecalis: >200 µg/mL
[2]
  MIC M. tuberculosis (H37Rv): 400 µg/mL (≈ 824 µM)
[8]
  MIC Acinetobacter: >200 µg/mL
[9]
  MIC S. aureus (MRSA): 50 µg/mL (≈ 103 µM)

## CC(=O)N(O)CCCP(=O)(OCOC(=O)c1ccccc1)OCOC(=O)c1ccccc1 [Compound 26]
[3]
  MIC E. coli k12: >200 µg/mL
[4]
  MIC S. aureus (MSSA): >200 µg/mL
[5]
  MIC E. coli tolc: 50 µg/mL (≈ 107 µM)
[6]
  MIC B. anthracis: 100 µg/mL (≈ 215 µM)
[7]
  MIC E. faecalis: >200 µg/mL
[2]
  MIC M. tuberculosis (H37Rv): 25 to 100 µg/mL
  antitubercular activity (in words): better antitubercular activity
[8]
  MIC Acinetobacter: 200 µg/mL (≈ 430 µM)
[9]
  MIC S. aureus (MRSA): >200 µg/mL

## CCOP(=O)(CCCN(O)C(=O)C1CCCCC1)OCC [ERJ 112]
[2]; [10]
  MIC: > 200 µg/mL
[2]; [11]
  MIC: 100 µg/mL (≈ 311 µM)

## O=C(C1CCCCC1)N(O)CCCP(=O)([O-])O.[Na+] [ERJ 116]
[1]; Mtb Dxr IC50 (ug/mL)
  IC50: 57.8 µM
[2]; [10]
  MIC: > 200 µg/mL
[2]; [11]
  MIC: > 200 µg/mL

## CCOP(=O)(CCCN(O)C(=O)C1CC1)OCC [ERJ 119]
[2]
  Mtb MIC (ug/mL) (7H9): >200 (7H9) >200 (GAST) ug/mL
  Mtb MIC (ug/mL) (GAST): >200 (7H9) >200 (GAST) ug/mL

## O=C(C1CC1)N(O)CCCP(=O)([O-])O.[Na+] [ERJ 123]
[2]; read-out: Mtb MIC (ug/mL)
  MIC: > 400 µg/mL

## CCOP(=O)(CCCN(O)C(C)=O)OCC [GSJ21]
[2]
  Mtb MIC: >200 µg/mL

## CC(=O)N(O)CCCCP(=O)(O)O [GSJ54]
[1]; Mtb Dxr IC50 (ug/mL)
  IC50: 13.2 µM
[2]; read-out: Mtb MIC (ug/mL)
  MIC: > 200 µg/mL

## CCOP(=O)(CCCN(OCc1ccc(C(C)C)cc1)C(C)=O)OCC [GSJ70]
[2]; [10]
  MIC: 400 µg/mL (≈ 1040 µM)
[2]; [11]
  MIC: 200 µg/mL (≈ 519 µM)

## CCOP(=O)(CCCN(OCC1CCCCC1)C(C)=O)OCC [GSJ71]
[2]; [10]
  MIC: ≥ 400 µg/mL
[2]; [11]
  MIC: 200 to 400 µg/mL (≈ 572 to 1140 µM)

## CCOP(=O)(CCCN(OCc1ccc(-c2ccccc2)cc1)C(C)=O)OCC [GSJ72]
[2]; [10]
  MIC: 200 µg/mL (≈ 477 µM)
[2]; [11]
  MIC: 100 µg/mL (≈ 238 µM)

## CCOP(=O)(CCCN(OCc1ccc2ccccc2c1)C(C)=O)OCC [GSJ73]
[2]; [10]
  MIC: 200 µg/mL (≈ 508 µM)
[2]; [11]
  MIC: 100 µg/mL (≈ 254 µM)
